We go through 41 compounds from US20200077648A1, “PHENOXYPHENYLAMIDINES AND THE USE THEREOF AS FUNGICIDES” (priority 2016, published 2020).

One series relates to soy bean plants. In words: Plant compatibility test using soy bean plants. Conditions: soy bean young plants sprayed, rate of application of active compound 500 ppm, evaluated 6 days after application; 0% = no damages, 100% = plants totally damaged. Type of series: in vivo. Here is the method: Plant Compatibility Test Using Soy Bean Plants
Solvent: 24.5 parts by weight of acetone • 24.5 parts by weight of dimethylacetamide Emulsifier: 1 part by weight of alkylaryl polyglycol ether
To produce a suitable preparation of active compound, 1 part by weight of active compound is mixed with the stated amounts of solvent and emulsifier, and the concentrate is diluted with water to the desired concentration. Young plants are sprayed with the preparation of active compound at the stated application rate. The plants are then placed in a greenhouse at approximately 21° C. and a relative atmospheric humidity of approximately 80%. The test is evaluated 6 days after application and comprises plant damages like leaf deformation, chlorosis, necrosis, shoot damage or stunting. 0% means no damages are observed, while 100% means that the plants are totally damaged.

Series [1] in a line: Log P measurement by HPLC on reversed phase columns (EEC directive 79/831 Annex V.A8; methods [a], [b], [c]). In kind it is physicochemical. Here is the method: If more than one Log P value is available within the same method, all the values are given and separated by “+”. […] Lambda-max-values were determined using UV-spectra from 200 nm to 400 nm and the peak values of the chromatographic signals.

[2] abbreviates: method [a]: LC-UV, acidic range, 0.1% formic acid in water and acetonitrile as eluent.
The mark [3] stands for this setting: method [b]: LC-UV, neutral range, 0.001 molar ammonium acetate solution in water and acetonitrile as eluent.
[4] abbreviates: method [a]: LC-UV, acidic range, 0.1% formic acid in water and acetonitrile as eluent (linear gradient 10% to 95% acetonitrile).

The compound `CCN(C)C=Nc1cc(C)c(Oc2cccc(F)c2)cc1Cl` [Example 5] returned a Necrosis in % in the series on soy bean plants of 10%. The LogP in series [1] (setting [2]) was 1.58^[a].

In turn, `CCN(C)C=Nc1cc(Br)c(Oc2ccccc2)cc1C` [Example 36] yielded a Necrosis in % with soy bean plants of 40%. In addition, the LogP was 1.58^[a]; in series [1] (setting [2]) and 4.79^[b] in series [1] (setting [3]).

Compound `CCN(C)C=Nc1cc(C)c(Oc2cccc(F)c2F)cc1C` [Example 19] displayed a Necrosis in % with soy bean plants of 60%. Also, in series [1] (setting [2]), the LogP is 1.49^[a].

Take `CCN(C)C=Nc1cc(C(F)F)c(Oc2ccccc2C#N)cc1C` [Example 102]: in the series with soy bean plants, the Necrosis in % stood at 0%. Further, in series [1] (setting [4]), the LogP was 1.18^[a].

The compound `C=C(C)c1cc(N=CN(C)CC)c(C)cc1Oc1ccccc1F` [Example 118] displayed a Necrosis in % with soy bean plants of 5%. The LogP in series [1] (setting [4]) is 1.60^[a].

Compound `CCN(C)C=Nc1cc(Cl)c(Oc2ccc(F)cc2)cc1C` [Example 8] had a Necrosis in % in the series on soy bean plants of 0%. Also, in series [1] (setting [2]), the LogP was 1.55^[a].

As to `CCN(C)C=Nc1cc(Cl)c(Oc2cccc(F)c2)cc1C` [Example 12], the Necrosis in % in the series with soy bean plants amounted to 5%. Further, the LogP in series [1] (setting [2]) was 1.75^[a].

For the compound `CCN(C)C=Nc1cc(OC)c(Oc2ccccc2)cc1C` [Example 31], the Necrosis in % with soy bean plants amounted to 30%. Besides, the LogP in series [1] (setting [2]) was 1.42^[a];; in series [1] (setting [3]) it was 3.93^[b].

In turn, `CCN(C)C=Nc1cc(C)c(Oc2ccccc2C(F)(F)F)cc1C` [Example 114] yielded a Necrosis in % with soy bean plants of 5%. In addition, the LogP in series [1] (setting [4]) is 1.69^[a].

In the series with soy bean plants, `CCN(C)C=Nc1cc(C)c(Oc2cccc(C)c2F)cc1C` [Example 20] came in with a Necrosis in % of 80%. The LogP in series [1] (setting [2]) was 1.69^[a].

For `CCc1cc(N=CN(C)CC)c(C)cc1Oc1ccccc1F` [Example 106], the Necrosis in % with soy bean plants was found to be 30%. For the same compound, the LogP in series [1] (setting [4]) is 1.69^[a].

`CCN(C)C=Nc1cc(C)c(Oc2ccccc2Cl)cc1C` [Example 16]: in the series on soy bean plants, the Necrosis in % is 30%. Besides, the LogP in series [1] (setting [2]) is 1.86^[a].

For `CCN(C)C=Nc1cc(C(F)(F)F)c(Oc2ccccc2C#N)cc1C` [Example 21], the Necrosis in % in the series on soy bean plants amounted to 20%. In addition, the LogP in series [1] (setting [2]) is 1.46^[a].

On to `CCN(C)C=Nc1cc(C2CC2)c(Oc2ccccc2F)cc1C` [Example 120], for which, in the series on soy bean plants, the Necrosis in % came to 0%. The LogP in series [1] (setting [4]) is 1.60^[a].

Compound `Cc1cc(Oc2ccccc2F)c(C)cc1N=CN(C)C(C)C` [Example 67] displayed a Necrosis in % in the series with soy bean plants of 40%. Also, the LogP in series [1] (setting [2]) is 1.68^[a].

In turn, `CCN(C)C=Nc1cc(Cl)c(Oc2cccc(Cl)c2)cc1C` [Example 48] registered a Necrosis in % with soy bean plants of 30%. Further, in series [1] (setting [2]), the LogP was 1.83^[a].

As to `Cc1cc(N=CN(C)C(C)C)c(Cl)cc1Oc1ccccc1F` [Example 7], in the series with soy bean plants, the Necrosis in % is reported as 10%. The LogP in series [1] (setting [2]) was 1.80^[a].

In turn, `CCN(C)C=Nc1cc(C)c(Oc2cccc(F)c2)cc1C` [Example 2] returned a Necrosis in % with soy bean plants of 80%. Moreover, in series [1] (setting [2]), the LogP is 1.50^[a].

As to `CCN(C)C=Nc1cc(C(F)F)c(Oc2ccccc2F)cc1C` [Example 105], in the series with soy bean plants, the Necrosis in % was determined as 0%. Further, the LogP in series [1] (setting [4]) is 1.46^[a].

`CCN(C)C=Nc1cc(I)c(Oc2ccccc2C#N)cc1C` [Example 56] yielded a Necrosis in % with soy bean plants of 10%. Moreover, the LogP in series [1] (setting [2]) was 1.37^[a].

For `CCN(C)C=Nc1cc(F)c(Oc2ccccc2F)cc1C` [Example 65], the Necrosis in % with soy bean plants is recorded as 20%. In series [1] (setting [2]), the LogP is 1.34^[a].

In the case of `Cc1cc(Oc2ccccc2C#N)c(C)cc1N=CN(C)C(C)C` [Example 71], the Necrosis in % in the series on soy bean plants was 5%. For the same compound, the LogP in series [1] (setting [4]) was 1.48^[a].

Regarding `CCN(C)C=Nc1cc(C)c(Oc2ccc(F)cc2)cc1Cl` [Example 9], the Necrosis in % in the series with soy bean plants was 5%. Further, the LogP in series [1] (setting [2]) was 1.47^[a].

In the series with soy bean plants, `CCN(C)C=Nc1cc(C(C)C)c(Oc2ccccc2C#N)cc1C` [Example 107] displayed a Necrosis in % of 0%. The LogP in series [1] (setting [4]) is 1.75^[a].

As for `CCN(C)C=Nc1cc(I)c(Oc2ccccc2)cc1C` [Example 30], the Necrosis in % in the series with soy bean plants is listed as 50%. Also, the LogP in series [1] (setting [2]) is 1.69^[a];; in series [1] (setting [3]), 5.01^[b].

As to `CCN(C)C=Nc1cc(I)c(Oc2ccccc2C)cc1C` [Example 59], in series [1] (setting [2]), the LogP was 1.78^[a].

As for `CCN(C)C=Nc1cc(C)c(Oc2cccc(F)c2Br)cc1Cl` [Example 79], the LogP in series [1] (setting [4]) was 1.66^[a].

In the case of `CCN(C)C=Nc1cc(I)c(Oc2ccccc2Br)cc1C` [Example 57], the LogP in series [1] (setting [2]) was 1.75^[a].

As to `Cc1cc(Oc2ccc(F)cc2)c(C)cc1N=CN(C)C(C)C` [Example 4], the LogP in series [1] (setting [2]) was 1.66^[a];; in series [1] (setting [3]), 5.63^[b].

In the series on soy bean plants, `CCN(C)C=Nc1cc(C)c(Oc2cccc(F)c2C#N)cc1Cl` [Example 88] registered a Necrosis in % of 20%. The LogP in series [1] (setting [4]) was 1.35^[a].

Compound `CCN(C)C=Nc1cc(I)c(Oc2ccccc2F)cc1C` [Example 55] registered a Necrosis in % in the series with soy bean plants of 10%. The LogP in series [1] (setting [2]) was 1.58^[a].

For `CCN(C)C=Nc1cc(C)c(Oc2ccccc2)cc1C(=O)N(C)C` [Example 87], the LogP in series [1] (setting [4]) was 1.21^[a].

With `CCN(C)C=Nc1cc(C)c(Oc2ccccc2F)cc1C1CC1` [Example 34, N′-[2-cyclopropyl-4-(2-fluorophenoxy)-5-methyl-phenyl]-N-ethyl-N-methyl-formamidine], the chromatographic logP in series [1] (reversed phase HPLC column, method [a]: LC-UV, acidic range, 0.1% formic acid in water and acetonitrile as eluent) was 1.69.

`CCN(C)C=Nc1cc(C)c(Oc2cc(F)ccc2C#N)cc1Cl` [Example 93] gave a Necrosis in % in the series with soy bean plants of 10%. Besides, the LogP in series [1] (setting [4]) was 1.27^[a].

As for `CCN(C)C=Nc1cc(Br)c(Oc2ccccc2F)cc1C` [Example 42], in the series with soy bean plants, the Necrosis in % came to 20%. Further, the LogP in series [1] (setting [2]) is 1.55^[a].

As for `CCN(C)C=Nc1cc(C)c(Oc2ccccc2N(C)C)cc1Cl` [Example 76], the LogP in series [1] (setting [4]) is 0.78^[a].

For the compound `CCN(C)C=Nc1cc(C(C)C)c(Oc2ccccc2F)cc1C` [Example 121], the LogP in series [1] (setting [4]) is 1.75^[a].

For `CCN(C)C=Nc1cc(C2CC2)c(Oc2ccccc2F)cc1C` [Example 52], in series [1] (setting [2]), the LogP was 1.75^[a].

In the case of `CCc1ccccc1Oc1cc(C)c(N=CN(C)CC)cc1C` [Example 10], in series [1] (setting [2]), the LogP was 2.06^[a].

As for `CCc1cc(Oc2ccccc2)c(Br)cc1N=CN(C)C` [Example 35], the LogP in series [1] (setting [2]) was 1.37^[a];; in series [1] (setting [3]), 4.29^[b].

For `CCN(C)C=Nc1cc(C)c(Oc2cccc(Cl)c2F)cc1C` [Example 53], the LogP in series [1] (setting [2]) is 1.89^[a].
